Data published in patent US9945845B2, “Methods of screening using amphibians” (priority 2009, dated 2018).
Entries after “also recorded” stand apart in the source; their conditions may differ.

Legend:
[1] = system: LEC; experiment: cells; assay type: cell-based, human; conditions: 1 μM in 0.1% DMSO, overnight
Procedure, shortened: (§1)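 HUVEC and LEC in EBM with 20% FBS, hydrocortisone and dibutyryl-cAMP, up to eleven passages, treated overnight at 37 °C with compound at 1 μM in 0.1% DMSO, then fixed in 4% paraformaldehyde. Read-out: total tube length (μm) per area over three hotspot images per well, triplicate wells.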

[2] = system: HUVEC; experiment: HUVEC tube formation assay; assay type: cell-based, human; conditions: 1 μM in 0.1% DMSO, overnight
Procedure, shortened: as §1

[3] = system: Xenopus embryos
Procedure, shortened: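 Stage 31 (37 hpf) Xenopus embryos, five per well, exposed to 20 µM compound in 1% DMSO at 23 °C for 4 days. Edema, lethality and other external phenotypes were scored daily by two investigators at stages 39, 41, 45 and 47.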

[4] = system: LEC; experiment: LEC cell proliferation assay; assay type: cell-based, human; conditions: 10 μM in 0.1% DMSO, 48 hours
Procedure, shortened: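 HUVEC and LEC in EBM with 20% FBS, hydrocortisone and dibutyryl-cAMP were treated with compound at 10 μM in 0.1% DMSO for 48 hours. Viable cells read by fluorescence, in five replicates.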

[5] = system: transgenic zebrafish expressing a fluorescent vascular reporter gene; conditions: Tran et al., 2007, cited from earlier work
[6] = system: blood vessel development and/or lymphangiogenesis in Xenopus embryos; assay type: in vivo, Xenopus laevis
Procedure, shortened: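 Albino Xenopus embryos treated at 20 μM final (from 10-mM DMSO stocks) in screening medium, 7 per well, from stage 31 (37 hpf) to stage 35/36 (50 hpf) or 42 (80 hpf). Fixed in 4% paraformaldehyde and scored by whole-mount in situ hybridization: vasculogenesis and intersomitic vein angiogenesis at stage 35/36, lymph vessel development at stage 42.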

## CN(C)c1ccc(C=C2C(=O)Nc3ccccc32)cc1 [SU 4312, 3-(4-Dimethylaminobenzylidenyl)-2-indolinone]
[1]
  LEC tube formation: O (O, inactive or marginal effects (85-115% of control);)
[2]
  HUVEC tube formation: O (O, inactive or marginal effects (85-115% of control);)
[3]; 20 μM, known antiangiogenic compounds
  scored in the phenotypic Xenopus screens: active
[3]; embryonic phenotype in the primary screen
  Embr. phen.: EDE
[3]; embryonic stage
  Type of edema Pronephric: 45 embryonic stages according to Nieuwkoop and Faber (NF)
[3]; embryonic stage, * = causing bulging eyes, # = bilateral, causing narrow-set eyes
  Type of edema Periocular: 45 embryonic stages according to Nieuwkoop and Faber (NF)
[3]; embryonic stage, ‡ = edemas also detected in the gut
  Type of edema Ventral: 45 embryonic stages according to Nieuwkoop and Faber (NF)
[3]; onset of edema, 20 μM, 1% DMSO, treatment from stage 31, Nieuwkoop & Faber stage
  Onset (NF): 45 NF
[4]
  LEC proliferation: O (O, inactive or marginal effects (85-115% of control);)
[5]
  recovery as antiangiogenic compound in the transgenic zebrafish screen: recovery
[5]; at higher concentrations (>30 μM)
  antiangiogenic effects in zebrafish: moderate antiangiogenic effects
[6]; 20 μM from stage 31, fixed at stage 35/36
  blood vessel development phenotype (apj expression, in words): largely unaffected; also recorded: normal angiogenic ISV outgrowth
[6]; 20 μM from stage 31, fixed at stage 42
  lymph vessel development phenotype (vegfr3 expression, in words): inhibiting preferentially lymphatic vascular development; also recorded: lymphangiogenesis was largely suppressed; also recorded: robustly blocks lymphangiogenesis
[6]; Xenopus embryos
  Blood vessel phenotype: normal
[6]; anterior lymph heart, Xenopus embryos
  ALH phenotype: impaired
[6]; anterior lymph sac, Xenopus embryos
  ALS phenotype: impaired
[6]; posterior lymph vessels, Xenopus embryos
  PLV phenotype: hypoplastic
